In brackets after ≈: the same amount, converted by molar mass.
Key:
Type in all cases: cell-based
S. aureus MP-12 = test: microbe, parasite or virus in culture; conditions: Staphylococcus aureus, MP12, read-out: MIC S. aureus MP-12
E. coli MP-4 = test: MIC determination by CLSI broth dilution, E. coli MP-4; conditions: Escherichia coli, MP4, CLSI broth dilution; strain MP-4
K. pneumoniae MP-546 = test: MIC determination by CLSI broth dilution, K. pneumoniae MP-546; conditions: Klebsiella pneumoniae, MP546, CLSI broth dilution; strain MP-546
K. pneumoniae MP-648 = test: MIC determination by CLSI broth dilution, K. pneumoniae MP-648; conditions: Klebsiella pneumoniae, MP648, CLSI broth dilution; strain MP-648
P. aeruginosa MP-3 = test: MIC determination by CLSI broth dilution, P. aeruginosa MP-3; conditions: Pseudomonas aeruginosa, MP3, strain MP-3
A. baumannii MP-15 = test: MIC determination by CLSI broth dilution, A. baumannii MP-15; conditions: Acinetobacter baumannii, MP15, strain MP-15, read-out: MIC A. baumanii MP-15

## CO[C@]1(C)C[C@@H](C)CN(C)[C@@H](CC2CCN(CC3CC=CCC3)CC2)COC(=O)C(C)(C)C(=O)[C@H](C)[C@H]1O[C@@H]1O[C@H](C)C[C@H](N(C)C)[C@H]1O (stereo partly drawn) [Compound 73]
S. aureus MP-12
  MIC: 4 to 32 µg/mL (≈ 5.78 to 46.2 µM)
E. coli MP-4
  MIC: < 4 µg/mL
K. pneumoniae MP-546
  MIC: < 4 µg/mL
K. pneumoniae MP-648
  MIC: 4 to 32 µg/mL (≈ 5.78 to 46.2 µM)
P. aeruginosa MP-3
  MIC: > 32 µg/mL
A. baumannii MP-15
  MIC: > 32 µg/mL

## CO[C@]1(C)C[C@@H](C)CN(C)[C@H](CC2CN(CC(C)C)C2)COC(=O)C(C)(C)C(=O)[C@H](C)[C@H]1O[C@@H]1O[C@H](C)C[C@H](N(C)C)[C@H]1O [Compound 74]
S. aureus MP-12
  MIC: > 32 µg/mL
E. coli MP-4
  MIC: > 32 µg/mL
K. pneumoniae MP-546
  MIC: > 32 µg/mL
K. pneumoniae MP-648
  MIC: > 32 µg/mL
P. aeruginosa MP-3
  MIC: > 32 µg/mL
A. baumannii MP-15
  MIC: > 32 µg/mL

## CCCN1CCC(CC[C@@H]2COC(=O)C(C)(C)C(=O)[C@H](C)[C@@H](O[C@@H]3O[C@H](C)C[C@H](N(C)C)[C@H]3O)[C@](C)(OC)C[C@@H](C)CN2C)CC1 [Compound 75]
S. aureus MP-12
  MIC: > 32 µg/mL
E. coli MP-4
  MIC: 4 to 32 µg/mL (≈ 6.12 to 48.9 µM)
K. pneumoniae MP-546
  MIC: > 32 µg/mL
K. pneumoniae MP-648
  MIC: > 32 µg/mL
P. aeruginosa MP-3
  MIC: > 32 µg/mL
A. baumannii MP-15
  MIC: > 32 µg/mL

## CO[C@]1(C)C[C@@H](C)CN(C)[C@H](CCC2CCN(CC(C)C)CC2)COC(=O)C(C)(C)C(=O)[C@H](C)[C@H]1O[C@@H]1O[C@H](C)C[C@H](N(C)C)[C@H]1O [Compound 76]
S. aureus MP-12
  MIC: > 32 µg/mL
E. coli MP-4
  MIC: < 4 µg/mL
K. pneumoniae MP-546
  MIC: 4 to 32 µg/mL (≈ 5.99 to 47.9 µM)
K. pneumoniae MP-648
  MIC: 4 to 32 µg/mL (≈ 5.99 to 47.9 µM)
P. aeruginosa MP-3
  MIC: > 32 µg/mL
A. baumannii MP-15
  MIC: > 32 µg/mL

## CO[C@H](CCN1CCCC1)[C@@H]1COC(=O)C(C)(C)C(=O)[C@H](C)[C@@H](O[C@@H]2O[C@H](C)C[C@H](N(C)C)[C@H]2O)[C@](C)(OC)C[C@@H](C)CN1C [Compound 77]
S. aureus MP-12
  MIC: 4 to 32 µg/mL (≈ 6.23 to 49.9 µM)
E. coli MP-4
  MIC: < 4 µg/mL
K. pneumoniae MP-546
  MIC: < 4 µg/mL
K. pneumoniae MP-648
  MIC: < 4 µg/mL
P. aeruginosa MP-3
  MIC: > 32 µg/mL
A. baumannii MP-15
  MIC: > 32 µg/mL

## CO[C@]1(C)C[C@@H](C)CN(C)[C@H]([C@H](O)CCN2CCCC2)COC(=O)C(C)(C)C(=O)[C@H](C)[C@H]1O[C@@H]1O[C@H](C)C[C@H](N(C)C)[C@H]1O [Compound 78, (3S,6R,8R,9R,10R)-9-(((2S,3R,4S,6R)-4-(Dimethylamino)-3-hydroxy-6-methyltetrahydro-2H-pyran-2-yl)oxy)-3-((R)-1-hydroxy-3-(pyrrolidin-1-yl)propyl)-8-methoxy-4,6,8,10,12,12-hexamethyl-1-oxa-4-azacyclotridecane-11,13-dione]
S. aureus MP-12
  MIC: < 4 µg/mL
E. coli MP-4
  MIC: < 4 µg/mL
K. pneumoniae MP-546
  MIC: < 4 µg/mL
K. pneumoniae MP-648
  MIC: < 4 µg/mL
P. aeruginosa MP-3
  MIC: > 32 µg/mL
A. baumannii MP-15
  MIC: > 32 µg/mL

## CCCN1CC(C[C@H]2COC(=O)C(C)(C)C(=O)[C@H](C)[C@@H](O[C@@H]3O[C@H](C)C[C@H](N(C)C)[C@H]3O)[C@](C)(OC)C[C@@H](C)CN2C)C1 [Compound 79]
S. aureus MP-12
  MIC: > 32 µg/mL
E. coli MP-4
  MIC: 4 to 32 µg/mL (≈ 6.54 to 52.3 µM)
K. pneumoniae MP-546
  MIC: > 32 µg/mL
K. pneumoniae MP-648
  MIC: > 32 µg/mL
P. aeruginosa MP-3
  MIC: > 32 µg/mL
A. baumannii MP-15
  MIC: > 32 µg/mL

## CO[C@]1(C)C[C@@H](C)CN(C)[C@H](CCCN2CCC(F)CC2)COC(=O)C(C)(C)C(=O)[C@H](C)[C@H]1O[C@@H]1O[C@H](C)C[C@H](N(C)C)[C@H]1O [Compound 85, (3R,6R,8R,9R,10R)-9-(((2S,3R,4S,6R)-4-(dimethylamino)-3-hydroxy-6-methyltetrahydro-2H-pyran-2-yl)oxy)-3-(3-(4-fluoropiperidin-1-yl)propyl)-8-methoxy-4,6,8,10,12,12-hexamethyl-1-oxa-4-azacyclotridecane-11,13-dione]
S. aureus MP-12
  MIC: < 4 µg/mL
E. coli MP-4
  MIC: < 4 µg/mL
K. pneumoniae MP-546
  MIC: < 4 µg/mL
K. pneumoniae MP-648
  MIC: < 4 µg/mL
P. aeruginosa MP-3
  MIC: > 32 µg/mL
A. baumannii MP-15
  MIC: > 32 µg/mL

## CCN1C[C@H](C)C[C@@](C)(OC)[C@H](O[C@@H]2O[C@H](C)C[C@H](N(C)C)[C@H]2O)[C@@H](C)C(=O)C(C)(C)C(=O)OC[C@@H]1CCCN1CCCC1 [Compound 87, (3S,6R,8R,9R,10R)-9-(((2S,3R,4S,6R)-4-(dimethylamino)-3-hydroxy-6-methyltetrahydro-2H-pyran-2-yl)oxy)-4-ethyl-8-methoxy-6,8,10,12,12-pentamethyl-3-(3-(pyrrolidin-1-yl)propyl)-1-oxa-4-azacyclotridecane-11,13-dione]
S. aureus MP-12
  MIC: < 4 µg/mL
E. coli MP-4
  MIC: < 4 µg/mL
K. pneumoniae MP-546
  MIC: < 4 µg/mL
K. pneumoniae MP-648
  MIC: < 4 µg/mL
P. aeruginosa MP-3
  MIC: > 32 µg/mL
A. baumannii MP-15
  MIC: > 32 µg/mL

## CCN1C[C@H](C)C[C@@](C)(OC)[C@H](O[C@@H]2O[C@H](C)C[C@H](N(C)C)[C@H]2O)[C@@H](C)C(=O)C(C)(C)C(=O)OC[C@H]1CCCN1CCC[C@@H]1C [Compound 88, (3R,6R,8R,9R,10R)-9-(((2S,3R,4S,6R)-4-(dimethylamino)-3-hydroxy-6-methyltetrahydro-2H-pyran-2-yl)oxy)-4-ethyl-8-methoxy-6,8,10,12,12-pentamethyl-3-(3-((S)-2-methylpyrrolidin-1-yl)propyl)-1-oxa-4-azacyclotridecane-11,13-dione]
S. aureus MP-12
  MIC: 4 to 32 µg/mL (≈ 6.25 to 50 µM)
E. coli MP-4
  MIC: < 4 µg/mL
K. pneumoniae MP-546
  MIC: < 4 µg/mL
K. pneumoniae MP-648
  MIC: < 4 µg/mL
P. aeruginosa MP-3
  MIC: > 32 µg/mL
A. baumannii MP-15
  MIC: > 32 µg/mL

## CO[C@]1(C)C[C@@H](C)CN(C)[C@@H](CCCN(C)C2CC2)COC(=O)C(C)(C)C(=O)[C@H](C)[C@H]1O[C@@H]1O[C@H](C)C[C@H](N(C)C)[C@H]1O [Compound 90, (3S,6R,8R,9R,10R)-3-(3-(cyclopropyl(methyl)amino)propyl)-9-(((2S,3R,4S,6R)-4-(dimethylamino)-3-hydroxy-6-methyltetrahydro-2H-pyran-2-yl)oxy)-8-methoxy-4,6,8,10,12,12-hexamethyl-1-oxa-4-azacyclotridecane-11,13-dione]
S. aureus MP-12
  MIC: 4 to 32 µg/mL (≈ 6.54 to 52.3 µM)
E. coli MP-4
  MIC: < 4 µg/mL
K. pneumoniae MP-546
  MIC: < 4 µg/mL
K. pneumoniae MP-648
  MIC: 4 to 32 µg/mL (≈ 6.54 to 52.3 µM)
P. aeruginosa MP-3
  MIC: > 32 µg/mL
A. baumannii MP-15
  MIC: > 32 µg/mL

## CO[C@]1(C)C[C@@H](C)CN(C)[C@@H](CCCN2CCC(O)CC2)COC(=O)C(C)(C)C(=O)[C@H](C)[C@H]1O[C@@H]1O[C@H](C)C[C@H](N(C)C)[C@H]1O [Compound 92, (3S,6R,8R,9R,10R)-9-(((2S,3R,4S,6R)-4-(dimethylamino)-3-hydroxy-6-methyltetrahydro-2H-pyran-2-yl)oxy)-3-(3-(4-hydroxypiperidin-1-yl)propyl)-8-methoxy-4,6,8,10,12,12-hexamethyl-1-oxa-4-azacyclotridecane-11,13-dione]
S. aureus MP-12
  MIC: > 32 µg/mL
E. coli MP-4
  MIC: < 4 µg/mL
K. pneumoniae MP-546
  MIC: 4 to 32 µg/mL (≈ 6.23 to 49.9 µM)
K. pneumoniae MP-648
  MIC: 4 to 32 µg/mL (≈ 6.23 to 49.9 µM)
P. aeruginosa MP-3
  MIC: > 32 µg/mL
A. baumannii MP-15
  MIC: > 32 µg/mL

## CO[C@]1(C)C[C@@H](C)CN(C)[C@H](CCCN2CCCCC2)COC(=O)C(C)(C)C(=O)[C@H](C)[C@H]1O[C@@H]1O[C@H](C)C[C@H](N(C)C)[C@H]1O [Compound 93, (3R,6R,8R,9R,10R)-9-(((2S,3R,4S,6R)-4-(dimethylamino)-3-hydroxy-6-methyltetrahydro-2H-pyran-2-yl)oxy)-8-methoxy-4,6,8,10,12,12-hexamethyl-3-(3-(piperidin-1-yl)propyl)-1-oxa-4-azacyclotridecane-11,13-dione]
S. aureus MP-12
  MIC: 4 to 32 µg/mL (≈ 6.39 to 51.1 µM)
E. coli MP-4
  MIC: < 4 µg/mL
K. pneumoniae MP-546
  MIC: < 4 µg/mL
K. pneumoniae MP-648
  MIC: < 4 µg/mL
P. aeruginosa MP-3
  MIC: > 32 µg/mL
A. baumannii MP-15
  MIC: > 32 µg/mL
